24 compounds from patent US20240083857A1, “2-Methyl-Quinazolines” (Bayer Pharma Aktiengesellschaft, priority 2017, published 2024) can be followed below.

For experiment [1], the target named is K-Ras^G12C : hSOS1 interaction (Homo sapiens, UniProt Q07889). In words: Biochemical assay 1: K-Ras^G12C interaction assay with hSOS1 (HTRF). It counts as binding. Conditions: for inhibition at 20 µM: read-out: Assay 1 (KRAS-SOS Interaction) activity expressed as % inhibition at 20 μM; for IC50: read-out: Assay 1 (KRAS-SOS Interaction) activity expressed as IC50. For orientation: Time-resolved FRET reads energy transfer from a long-lived donor to a nearby acceptor.

Experiment [2] deals with human SOS1 (nucleotide exchange of K-Ras^G12C) (Homo sapiens, UniProt Q07889). In words: Biochemical assay 2: K-Ras^G12C activation assay by hSOS1 at high GTP concentration (HTRF). Conditions: high GTP; for inhibition at 20 µM: read-out: Assay 2 (KRAS-Activation by SOS high GTP) activity expressed as % inhibition at 20 μM; for IC50: read-out: Assay 2 (KRAS-Activation by SOS high GTP) activity expressed as IC50.

The target of experiment [3] is human SOS1 (loading of human K-Ras^G12C-GDP with fluorescent GTP-analog) (Homo sapiens, UniProt Q07889). In words: Biochemical assay 3: K-Ras^G12C activation assay by hSOS1 (HTRF). The conditions noted are these: no GTP; for inhibition at 20 µM: read-out: Assay 3 (KRAS-Activation by SOS no GTP) activity expressed as % inhibition at 20 μM; for IC50: read-out: Assay 3 (KRAS-Activation by SOS no GTP) activity expressed as IC50.

SMILES strings stand for the structures.

As to `COc1cc2nc(C)nc(N[C@@H](C)c3ccc(-c4cccc(-c5nnc(C)o5)c4)s3)c2cc1OC` (stereo in doubt) [Example 126, 6,7-dimethoxy-2-methyl-N-[1-{5-[3-(5-methyl-1,3,4-oxadiazol-2-yl)phenyl]thiophen-2-yl}ethyl]quinazolin-4-amine], the inhibition (usually how much of the control response was suppressed) at 20 µM stood at 52% in experiment [1], 31% in experiment [2] and 11% in experiment [3].
Taken in the same sequence, the figures for `COc1cc(F)cc(-c2ccc([C@H](C)Nc3nc(C)nc4cc(OC)c(OC)cc34)s2)c1` (stereo in doubt) [Example 134, N-{1-[5-(3-fluoro-5-methoxyphenyl)thiophen-2-yl]ethyl}-6,7-dimethoxy-2-methylquinazolin-4-amine] were 43%, 23% and 27%.
Taken in the same sequence, the figures for `COc1cc2nc(C)nc(N[C@@H](C)c3ccc(-c4cccc(OCc5ccccc5)c4)s3)c2cc1OC` (stereo in doubt) [Example 135, N-[1-{5-[3-(benzyloxy)phenyl]thiophen-2-yl}ethyl]-6,7-dimethoxy-2-methylquinazolin-4-amine] were 28%, 5% and 13%.
Taken in the same sequence, the figures for `CCCCOc1cccc(F)c1-c1ccc([C@H](C)Nc2nc(C)nc3cc(OC)c(OC)cc23)s1` (stereo in doubt) [Example 136, N-{1-[5-(2-butoxy-6-fluorophenyl)thiophen-2-yl]ethyl}-6,7-dimethoxy-2-methylquinazolin-4-amine] were 37%, 20% and 18%.
As to `COc1cc2nc(C)nc(N[C@@H](C)c3ccc(-c4ccc(C(C)(C)C#N)cc4)s3)c2cc1OC` (stereo in doubt) [Example 137, 2-[4-(5-{1-[(6,7-dimethoxy-2-methylquinazolin-4-yl)amino]ethyl}thiophen-2-yl)phenyl]-2-methylpropanenitrile], the values for the inhibition at 20 µM in experiment [1], in experiment [2] and in experiment [3] were 48%, 36% and 32%, respectively.
Taken in the same sequence, the figures for `CCCOc1ccc(Cl)cc1-c1ccc([C@H](C)Nc2nc(C)nc3cc(OC)c(OC)cc23)s1` (stereo in doubt) [Example 144, N-{1-[5-(5-chloro-2-propoxyphenyl)thiophen-2-yl]ethyl}-6,7-dimethoxy-2-methylquinazolin-4-amine] were 30%, 12% and 19%.
Taken in the same sequence, the figures for `COc1cc2nc(C)nc(N[C@@H](C)c3ccc(-c4ccccc4Oc4ccccc4)s3)c2cc1OC` (stereo in doubt) [Example 158, 6,7-dimethoxy-2-methyl-N-{1-[5-(2-phenoxyphenyl)thiophen-2-yl]ethyl}quinazolin-4-amine] were 29%, 4% and 10%.
Taken in the same sequence, the figures for `COc1cc2nc(C)nc(N[C@@H](C)c3ccc(-c4ccc(NC(=O)OC(C)(C)C)cc4)s3)c2cc1OC` (stereo in doubt) [Example 159, tert-butyl [4-(5-{1-[(6,7-dimethoxy-2-methylquinazolin-4-yl)amino]ethyl}thiophen-2-yl)phenyl]carbamate] were 43%, 27% and 35%.
As for `COc1cc2nc(C)nc(N[C@@H](C)c3ccc(-c4ccc5c(c4)OCCN5C)s3)c2cc1OC` (stereo in doubt) [Example 164, 6,7-dimethoxy-2-methyl-N-{1-[5-(4-methyl-3,4-dihydro-2H-1,4-benzoxazin-7-yl)thiophen-2-yl]ethyl}quinazolin-4-amine], the inhibition at 20 µM was 41% in experiment [1], 19% in experiment [2] and 22% in experiment [3].
Taken in the same sequence, the figures for `COc1cc2nc(C)nc(N[C@@H](C)c3ccc(-c4cccc(OCC5CC5)c4)s3)c2cc1OC` (stereo in doubt) [Example 170, N-[1-{5-[3-(cyclopropylmethoxy)phenyl]thiophen-2-yl}ethyl]-6,7-dimethoxy-2-methylquinazolin-4-amine] were 45%, 7% and 15%.
As for `Cc1nc(N[C@H](C)c2ccccc2)c2cc(Br)ccc2n1` [Example 29, 6-bromo-2-methyl-N-[(1R)-1-phenylethyl]quinazolin-4-amine], the IC50 (usually the concentration that gives 50% inhibition) in experiment [1] was 10200 nM; in experiment [2], 10900 nM. For the same compound, in experiment [3], the inhibition at 20 µM worked out at 44%.
Turning to `Cc1nc(N[C@H](C)c2ccc(F)cc2)c2cc(Br)ccc2n1` [Example 31, 6-bromo-N-[(1R)-1-(4-fluorophenyl)ethyl]-2-methylquinazolin-4-amine], the IC50 worked out at 8590 nM in experiment [1] and 9510 nM in experiment [2]. Also, in experiment [3], the inhibition at 20 µM was determined as 49%.
As to `COc1cc2nc(C)nc(N[C@H](C)c3cccc(-c4cc(N)ccc4C)c3)c2cc1OC` [Example 36, N-[(1R)-1-(5′-amino-2′-methylbiphenyl-3-yl)ethyl]-6,7-dimethoxy-2-methylquinazolin-4-amine], the IC50 is 542 nM in experiment [1], 1000 nM in experiment [2] and 696 nM in experiment [3].
Taken in the same sequence, the figures for `COc1cc2nc(C)nc(N[C@H](C)c3cccc(-c4cncnc4)c3)c2cc1OC` [Example 37, 6,7-dimethoxy-2-methyl-N-{(1R)-1-[3-(pyrimidin-5-yl)phenyl]ethyl}quinazolin-4-amine] were 1540 nM, 1850 nM and 2690 nM.
Taken in the same sequence, the figures for `COc1cc2nc(C)nc(N[C@H](C)c3cccc(-c4cccc5cnccc45)c3)c2cc1OC` [Example 39, N-{(1R)-1-[3-(isoquinolin-5-yl)phenyl]ethyl}-6,7-dimethoxy-2-methylquinazolin-4-amine] were 1460 nM, 1830 nM and 3050 nM.
Taken in the same sequence, the figures for `COc1cc2nc(C)nc(N[C@H](C)c3cccc(-c4c(F)ccc(C)c4Cl)c3)c2cc1OC` [Example 40, N-[(1R)-1-(2′-chloro-6′-fluoro-3′-methylbiphenyl-3-yl)ethyl]-6,7-dimethoxy-2-methylquinazolin-4-amine] were 3850 nM, 1750 nM and 4550 nM.
Turning to `COc1cc2nc(C)nc(N[C@H](C)c3cccc(-c4cncc(C)c4)c3)c2cc1OC` [Example 41, 6,7-dimethoxy-2-methyl-N-{(1R)-1-[3-(5-methylpyridin-3-yl)phenyl]ethyl}quinazolin-4-amine], the figures for the IC50 in experiment [1], in experiment [2] and in experiment [3] were 972 nM, 1400 nM and 1670 nM, respectively.
`COc1cc2nc(C)nc(N[C@H](C)c3cccc(-c4cccc(-c5nnc(C)o5)c4)c3)c2cc1OC` [Example 55, 6,7-dimethoxy-2-methyl-N-{(1R)-1-[3′-(5-methyl-1,3,4-oxadiazol-2-yl)biphenyl-3-yl]ethyl}quinazolin-4-amine]: the figures for the IC50 in experiment [1], in experiment [2] and in experiment [3] were 674 nM, 629 nM and 724 nM, respectively.
Taken in the same sequence, the figures for `COc1cc2nc(C)nc(N[C@H](C)c3cccc(-c4cncc(S(C)(=O)=O)c4)c3)c2cc1OC` [Example 56, 6,7-dimethoxy-2-methyl-N-[(1R)-1-{3-[5-(methylsulfonyl)pyridin-3-yl]phenyl}ethyl]quinazolin-4-amine] were 1470 nM, 1790 nM and 2560 nM.
For `COc1cc2nc(C)nc(N[C@H](C)c3cccc(-c4ccc5c(c4)CC(=O)N5)c3)c2cc1OC` [Example 57, 5-(3-{(1R)-1-[(6,7-dimethoxy-2-methylquinazolin-4-yl)amino]ethyl}phenyl)-1,3-dihydro-2H-indol-2-one], the IC50 in experiment [1] came to 414 nM; in experiment [2], 401 nM; in experiment [3], 629 nM.
For `COc1cc2nc(C)nc(N[C@H](C)c3cccc(C4CC4(C)C)c3)c2cc1OC` (stereo partly drawn) [Example 58, N-{(1R)-1-[3-(2,2-dimethylcyclopropyl)phenyl]ethyl}-6,7-dimethoxy-2-methylquinazolin-4-amine], the results for the IC50 in experiment [1], in experiment [2] and in experiment [3] were 1770 nM, 1640 nM and 3110 nM, respectively.
Taken in the same sequence, the figures for `COc1cc2nc(C)nc(N[C@H](C)c3cccc(-c4ccc(-c5nnc(C)o5)cc4)c3)c2cc1OC` [Example 59, 6,7-dimethoxy-2-methyl-N-{(1R)-1-[4′-(5-methyl-1,3,4-oxadiazol-2-yl)biphenyl-3-yl]ethyl}quinazolin-4-amine] were 1590 nM, 770 nM and 965 nM.
Taken in the same sequence, the figures for `COc1cc2nc(C)nc(N[C@H](C)c3cccc(-c4cnc5[nH]ccc5c4)c3)c2cc1OC` [Example 60, 6,7-dimethoxy-2-methyl-N-{(1R)-1-[3-(1H-pyrrolo[2,3-b]pyridin-5-yl)phenyl]ethyl}quinazolin-4-amine] were 585 nM, 448 nM and 1040 nM.
Turning to `COc1cc2nc(C)nc(N[C@H](C)c3cccc(-c4cccc(S(N)(=O)=O)c4)c3)c2cc1OC` [Example 61, 3′-{(1R)-1-[(6,7-dimethoxy-2-methylquinazolin-4-yl)amino]ethyl}biphenyl-3-sulfonamide], the IC50 was 374 nM in experiment [1], 717 nM in experiment [2] and 895 nM in experiment [3].
